The nature of this series: gradient 5% acetonitrile 3 min, to 50% in 2 min, to 85% in 15 min, held 3 min, 100 µL/min. The settings on record: column: Zorbax Extend-C18 2.1 x 50 mm; eluents: water / acetonitrile, 0.1% formic acid. The procedure, abridged:
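Pure standards were analyzed in mixtures of ~100 molecules using HPLC coupled to a quadrupole time-of-flight mass spectrometer, in both positive and negative ionization mode. Separation used a Zorbax Extend-C18 column (2.1 × 50 mm, 1.8 μm) at 100 μL/min, with water and acetonitrile each containing 0.1% formic acid. Dead and dwell volumes were 40 μL and 900 μL, and data were collected over 3 months. Retention time was read from computationally picked adduct peaks, each inspected manually.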
With `COc1cc(NC(=O)NCCc2nc3cccnc3n2C2CCCCC2)cc(OC)c1OC`, the RP-LC retention time came to 693 s.

Regarding `COc1ccc(C(C)NC(=O)C2C(=O)NC3(C)CC2c2ccccc2O3)cc1` (stereo not drawn), the RP-LC retention time worked out at 747 s.

The molecule `CC(C)n1c(=O)c2ccccc2n(Cc2nc(-c3ccc(F)cc3)no2)c1=O` registered an RP-LC retention time of 1110 s.

The molecule `O=C(NCc1cccs1)c1ccnc(N2CCNC(c3ccccc3)C2)c1` (stereo not drawn) came in with an RP-LC retention time of 631 s.

With `COc1ccc(N2C(=O)CC(c3ccc(OC)c(OC)c3)CC2=O)cc1`, the RP-LC retention time came to 780 s.

With `CCn1ccc(C(=O)N2CCN(c3cc(-c4ccccc4)[nH]n3)CC2)n1`, the RP-LC retention time turned out to be 689 s.

The molecule `CCc1noc(-c2ccnc(-n3ncc(C(=O)N4CCOCC4)c3C)c2)n1` came in with an RP-LC retention time of 760 s.

The molecule `Cc1nn(-c2ccccc2)c(-n2cccc2)c1CNC(=O)NCc1ccc(F)cc1` registered an RP-LC retention time of 909 s.

Consider `CCCn1nc(CNC(=O)c2ccc(C#N)cc2)c2ccccc21`, for which the RP-LC retention time is 844 s.

In the case of `O=C(NC1CCCCC1)C1CCc2ncc(-c3ccsc3)n2C1` (stereo not drawn), the RP-LC retention time stood at 584 s.

On to `CCc1nc2cc(N3CCC(C(=O)NCc4cccnc4)CC3)cnc2nc1CC`, for which the RP-LC retention time is 598 s.

Regarding `O=C(CC1CCN(C(=O)Nc2ccccc2Cl)CC1)N1CCCCC1`, the RP-LC retention time was 806 s.

Take `Cc1ccc(NC(=O)Cn2nc(N3CCCC(C)C3)c3ccccc3c2=O)cc1F` (stereo not drawn): the RP-LC retention time was 1220 s.

For `Cc1ccccc1Cn1nc2ccc(S(=O)(=O)N3CCOCC3)cn2c1=O`, the RP-LC retention time was found to be 818 s.

Regarding `O=C(Nc1ccc2c(c1)C(=O)Nc1ccccc1O2)Oc1ccccc1`, the RP-LC retention time is 813 s.

Take `CO[C@@H]1C(O)[C@H](O[C@H]2CC[C@@]3(C=O)[C@H](CC[C@@H]4[C@@H]3CC[C@]3(C)[C@@H](C5=CC(=O)OC5)CC[C@]43O)C2)OC(C)[C@@H]1O` (stereo partly drawn): the RP-LC retention time came to 772 s.

`CCCCNC(=O)C1CCN(c2nc3ccc(-c4cccnc4)nc3s2)CC1` showed an RP-LC retention time of 588 s.

`COc1cc2c(cc1CNC(=O)COc1ccc(Br)cc1)OCCCO2` came in with an RP-LC retention time of 957 s.

In turn, `Cc1ccc(NC(=O)C2CCN(S(=O)(=O)c3ccc4[nH]c(=O)sc4c3)CC2)cc1Cl` showed an RP-LC retention time of 904 s.

As for `O=C(CSc1nnc(CCc2nc3ccccc3[nH]2)o1)NCc1c(F)cccc1F`, the RP-LC retention time stood at 571 s.

The molecule `O=C(CN1C(=O)CCc2cc(Br)ccc21)NCCN1CCc2ccccc2C1` yielded an RP-LC retention time of 662 s.

The molecule `Cc1ccc(-c2noc(-c3cccc(S(=O)(=O)NCCCN4CCC(C)CC4)c3)n2)cc1` showed an RP-LC retention time of 826 s.

With `CCCN(Cc1cccs1)C(=O)c1cc2c(=O)n(CCC)c3ccccc3n2n1`, the RP-LC retention time worked out at 1140 s.

Molecule `COc1ccc(C2C(C(=O)Nc3ccc4c(c3)OCCO4)c3ccccc3C(=O)N2C)cc1` (stereo not drawn) showed an RP-LC retention time of 832 s.

Molecule `CCC1CCCCN1C(=O)CSc1nc2c3cc(OC)ccc3n(C)c2c(=O)n1CC` (stereo not drawn) returned an RP-LC retention time of 1070 s.

Regarding `COC(=O)c1ccc(C(=O)NCC(c2ccccc2Cl)N(C)C)cc1` (stereo not drawn), the RP-LC retention time amounted to 560 s.

As for `Cc1cccc(-c2noc(Cc3nnc(-c4ccc(C)c(C)c4)o3)n2)c1`, the RP-LC retention time is 1190 s.

Take `CCc1ccc(NC(=O)N2CCC(n3cnc4cc(F)ccc4c3=O)CC2)cc1`: the RP-LC retention time worked out at 867 s.

Molecule `CCN1CCN(c2nc(F)c(F)c(S(=O)(=O)CCNc3ccccc3)c2F)CC1` displayed an RP-LC retention time of 689 s.

Regarding `CCN1C(=O)c2cccnc2Sc2cc(CNC(=O)Cc3ccc(F)cc3)ccc21`, the RP-LC retention time came out at 761 s.

In the case of `CC(C)(O)[C@@H]1[C@@H]2OC(=O)[C@H]1[C@]1(O)C[C@H]3O[C@]34C(=O)O[C@H]2[C@]14C`, the RP-LC retention time was 709 s.

`Cn1ncc(N2CCC(C(=O)N3CCc4ccccc43)C2)cc1=O` (stereo not drawn): the RP-LC retention time worked out at 714 s.

`O=C(O)c1nnn(-c2ccc3c(c2)CCC3)c1-c1ccncc1` returned an RP-LC retention time of 662 s.

In the case of `CCCN1C(=O)c2ccccc2Sc2cc(-c3noc(CNC(C)=O)n3)ccc21`, the RP-LC retention time worked out at 775 s.

Consider `O=C(NCc1ccco1)C(=O)NCC(c1cccnc1)N1CCOCC1` (stereo not drawn), for which the RP-LC retention time amounted to 568 s.

`CCCNC(=O)C1CCCN(c2ccc(SCC(=O)Nc3cc(Cl)ccc3C)nn2)C1` (stereo not drawn) gave an RP-LC retention time of 720 s.

Molecule `O=C(NC1(c2nc(-c3ccccn3)no2)CCCCC1)c1ccccc1` showed an RP-LC retention time of 848 s.

On to `COc1ccc(C(C)NC(=O)Cc2cn(C)c3ncccc23)cc1` (stereo not drawn), for which the RP-LC retention time was 678 s.

`NS(=O)(=O)c1ccc(NC(=O)NC2CC(=O)N(c3ccc(Cl)cc3)C2)cc1` (stereo not drawn) registered an RP-LC retention time of 657 s.

As to `COC(=O)c1cccc(Nc2c(-c3ccc(Cl)cc3)nc3cnccn23)c1`, the RP-LC retention time was found to be 905 s.

Turning to `Cc1oc(-c2[nH]ncc2C(=O)N(C)C)cc1S(=O)(=O)N1CCN(c2ccccc2)CC1`, the RP-LC retention time was determined as 746 s.

Molecule `c1ccc2c(CCNc3ccc(Nc4ccncc4)cc3)c[nH]c2c1` showed an RP-LC retention time of 1110 s.

With `Cc1cc(-c2ccc3c(c2)CCN3C(=O)C2CCCO2)on1` (stereo not drawn), the RP-LC retention time is 767 s.

With `CN1c2cc(F)ccc2C(=O)NC12CCN(C(=O)Nc1ccc(F)cc1F)CC2`, the RP-LC retention time stood at 752 s.

`COc1ccc(-c2ncc3c(n2)CCN(C(=O)c2ccccc2Br)C3)cc1`: the RP-LC retention time is 948 s.

`CCC(C)n1c(=O)c2ccccc2n(Cc2nc(-c3cccc(Cl)c3)no2)c1=O` (stereo not drawn) returned an RP-LC retention time of 1270 s.

Turning to `C=Cc1ccc(Cn2cc(S(=O)(=O)N3CCCCCC3)ccc2=O)cc1`, the RP-LC retention time amounted to 1020 s.

For `CCOc1cccc(CNC(=O)c2cn3cc(Cl)ccc3n2)c1`, the RP-LC retention time came out at 886 s.

Consider `CCc1nc(-c2cc(S(=O)(=O)N3CCN(c4ccc(F)cc4)CC3)c(C)s2)cs1`, for which the RP-LC retention time was 1220 s.

Take `Cc1ccc(S(=O)(=O)N2C[C@@H](F)C[C@H]2C(=O)N2CCOCC2)cc1F`: the RP-LC retention time is 710 s.

For `Cc1ccc(NC(=O)C2(C)Oc3cccnc3N(C)C2=O)cc1` (stereo not drawn), the RP-LC retention time was 845 s.

Molecule `CCc1nn2c(CNS(=O)(=O)Cc3ccccc3Cl)c(-c3ccccc3)nc2s1` had an RP-LC retention time of 1010 s.

In the case of `COc1ccc(CN(Cc2ccccc2)Cc2cc(=O)n3cc(C)ccc3n2)cc1OC`, the RP-LC retention time worked out at 616 s.

For the molecule `CCOC(=O)c1nc(N2CCCC(C)C2)c2ccccc2n1` (stereo not drawn), the RP-LC retention time was 759 s.

`Cc1cc(-c2nnc(-c3ccco3)o2)c(C)n1CC(=O)Nc1cccc(F)c1` showed an RP-LC retention time of 881 s.

`O=C(NCc1nc2cccnc2n1Cc1ccc(F)cc1)c1ccc(Br)o1` registered an RP-LC retention time of 757 s.

Take `O=C(c1ccc(F)cc1)N1CCCC1c1nc(-c2cccc(C(F)(F)F)c2)no1` (stereo not drawn): the RP-LC retention time amounted to 1090 s.

For the molecule `Cc1cc2c(cc1S(=O)(=O)N1CCCC1C(=O)Nc1ccc(F)cc1)OC(C)C(=O)N2` (stereo not drawn), the RP-LC retention time came out at 775 s.

With `COc1ccc(OCC(=O)N2CCCC2c2nc(-c3ccc(OC)cc3)no2)cc1` (stereo not drawn), the RP-LC retention time was determined as 934 s.

`O=C(NCC(O)c1ccc(C(F)(F)F)cc1)c1ccco1` (stereo not drawn) returned an RP-LC retention time of 711 s.

On to `CCN(Cc1ccccc1)C(=O)C(=O)c1c[nH]c2ccccc12`, for which the RP-LC retention time stood at 903 s.

The molecule `O=C(Cn1cccc1-c1nnc(C2CC2)o1)N1CCN(c2cccc(Cl)c2)CC1` registered an RP-LC retention time of 944 s.

For `Cc1ccc(N2C=C(C(=O)N3CCOCC3)S(=O)(=O)c3ccc(F)cc32)cc1`, the RP-LC retention time stood at 814 s.

`Cc1ccccc1-c1nnc(CSc2nnc(NC(=O)c3cccc(Cl)c3)s2)o1`: the RP-LC retention time amounted to 1040 s.

`CS(=O)(=O)N1CCC(C(=O)Nc2ccccc2Cl)Oc2ccccc21` (stereo not drawn): the RP-LC retention time is 935 s.

For `Cc1ccc(C)c(N2CCN(c3ccnc(SCC(=O)Nc4cccc(Cl)c4F)n3)CC2)c1`, the RP-LC retention time was found to be 1230 s.

`Cc1nnc(NC(=O)CSc2nnc(-c3ccc(Cl)cc3)o2)s1` gave an RP-LC retention time of 772 s.

Turning to `CCOC(=O)c1cc(S(=O)(=O)N2CCCC2C(=O)NCc2cccnc2)cn1C` (stereo not drawn), the RP-LC retention time worked out at 598 s.

Molecule `COc1ccc2c(c1)C1(CCN(C(=O)CC(C)(C)C)C1)C(=O)N2C` (stereo not drawn) yielded an RP-LC retention time of 782 s.

Regarding `COC(=O)c1c(NCC(C)C)c2cccc(Cl)c2[nH]c1=O`, the RP-LC retention time was found to be 792 s.

In the case of `Cc1ccc(C(=O)NCCc2cn(C)c3ncccc23)cc1F`, the RP-LC retention time worked out at 720 s.

On to `CN(Cc1ccccc1)C(=O)c1cn(-c2cc(-c3nc(C(C)(C)C)no3)ccn2)cn1`, for which the RP-LC retention time was determined as 1050 s.

For the molecule `O=C(c1cccnc1)N1CCC(COCc2ccccc2)CC1`, the RP-LC retention time is 747 s.

For `CCCNC(=O)C1CCCN(c2nc3ncn(CC(=O)Nc4ccc(C)cc4C)c(=O)c3s2)C1` (stereo not drawn), the RP-LC retention time came to 703 s.

Consider `COC(=O)c1ccccc1NC(=O)c1nnn(-c2cc(C)ccc2Cl)c1C`, for which the RP-LC retention time was determined as 1230 s.

For `O=C(NCC1CCN(C(=O)Oc2ccccc2)CC1)Nc1ccccc1Cl`, the RP-LC retention time was found to be 881 s.

The molecule `CC(=O)Nc1ccc2c(c1)N(C(=O)c1cccs1)CCC2` came in with an RP-LC retention time of 695 s.

Regarding `COc1ccc(CC(=O)N2CCCC2c2cc(C(C)C)on2)cc1OC` (stereo not drawn), the RP-LC retention time was 800 s.

The record behind these values is the METLIN SMRT retention time set (Domingo-Almenara et al. 2019).
